How the values were obtained:
pERK in MeWo (NF1-LOF) = assay: pERK modulation in vitro, MSD ELISA, MeWo; conditions: Homo sapiens, 1 h, read-out: pERK EC50
MeWo = assay: CellTiter-Glo cell viability assay, MeWo
sNF96.2 = assay: CellTiter-Glo cell viability assay, sNF96.2
[1] = test system: pERK in sNF96.2 (NF1-LOF); assay: pERK modulation in vitro, MSD ELISA, sNF96.2; conditions: SNF96.2, 1 h, read-out: pERK EC50
NCI-H1838 = assay: CellTiter-Glo cell viability assay, NCI-H1838
plexiform neurofibroma = conditions: GEMM models of plexiform neurofibroma, germline NF1-LOF mutations; cited from earlier work
[2] = test system: pERK in NCI-H1838 (NF1-LOF); assay: pERK modulation in vitro, MSD ELISA, NCI-H1838
BRAF V600E = test system: BRAF V600E; set-up: method as in PMID 26351322, PMID 30300582; conditions: full length human construct; 0.125 nmol/L GST-tagged BRAF V600E, 100 nmol/L biotinylated MEK, ATP 25 μmol/L; cited from earlier work
PK parameters in human = type: in vivo; conditions: 600 mg, QW
[3] = test system: pERK in NF1-LOF tumor cell lines sNF96.2, MeWo, and NCI-H1838; assay: pERK modulation pattern, MSD ELISA, statements on all three NF1-LOF tumor cell lines; conditions: 6 hours after treatment
[4] = test system: pERK in AGK::BRAF fusion melanoma PDX tumors; assay: pERK modulation in vivo (PK-PD study), AGK::BRAF fusion melanoma PDX tumors, Western blot; set-up: species or system mice
Method: Tumor and plasma samples were collected at 4, 8, and 24 hours after dose administration (three mice per timepoint). […] Tumor and plasma samples were collected at 4 and 24 hours after dose administration (three mice per time point). Tumor samples were snap-frozen and analyzed by Western blotting for pERK levels. Plasma samples were analyzed by the LC/MS-MS method to confirm plasma drug concentration.
Tumor samples were lysed with RIPA buffer (Thermo Fisher Scientific, cat. no. 89901) containing one complete EDTA-free tablet (Roche, cat. no. 05892791001) and one phosphatase inhibitor cocktail tablet (Roche, cat. no. 04906845001) per 10 mL of RIPA buffer. Protein concentration was determined using bicinchoninic acid assay (Pierce, cat. no. 23227). Samples were loaded at 25 to 30 μg/lane on 4% to 12% NuPAGE Bis-Tris gels (Invitrogen, cat. no. WG1403BOX) and were run in MOPS-SDS running buffer (Invitrogen, cat. no. NP0001) at constant voltage (120V) for approximately 2 hours. The gels were transferred onto a pre-activated polyvinylidene fluoride membrane (Millipore, cat. no. IPVH00010) in transfer buffer (Bio-Rad, cat. no. 161-0734). […] Blots were scanned and quantified using the Odyssey (LI-COR Biosciences) or Tanon 5200 Multi Image system (Tanon), and each sample was normalized to allow comparison.

C[C@@H](NC(=O)c1ncnc(N)c1Cl)c1ncc(C(=O)Nc2cc(C(F)(F)F)c(Cl)cn2)s1 [Tovorafenib]
EC50 (pERK in MeWo (NF1-LOF)): 8.3 µM
anti-proliferative activity (MeWo; CTG 72 hours): little activity
EC50 (MeWo; Homo sapiens, 72 h, read-out: Proliferation EC50): 7.5 µM
EC50 (sNF96.2; SNF96.2, 72 h, read-out: Proliferation EC50): 0.99 µM
sensitivity of cell line (sNF96.2; sNF96.2, CTG 72 hours): sensitive
EC50 [1]: 1.6 µM
EC50 (NCI-H1838; Homo sapiens, NCI-H1838, 72 h, read-out: Proliferation EC50): > 10 µM
anti-proliferative activity (NCI-H1838; NCI-H1838, CTG 72 hours): little activity
antitumor activity (plexiform neurofibroma): lack of tovorafenib antitumor activity
EC50 ([2]; Homo sapiens, NCI-H1838, 1 h, read-out: pERK EC50): > 10 µM
extent of the pERK increase ([2]; NCI-H1838, 1 hour after treatment, compared across type II RAF inhibitors): higher extent
Cmin (PK parameters in human): 899 ng/mL
AUC(0-t) (PK parameters in human; in vivo, calculated from weekly AUC0-168 divided by 7, read-out: Daily AUC0-24): 47600 ng·h/mL
pERK in tumor compared with vehicle control ([4]; single oral dose 17.5 mg/kg, 8 and 24 hours after dose): Inhibition of pERK was observed
pERK in tumor compared with vehicle control ([4]; single oral dose 25 mg/kg, 4, 8, and 24 hours after dose): Inhibition of pERK was observed
